Source: US8877754B2, “Compounds, pharmaceutical compositions and uses thereof” (Boehringer Ingelheim International GmbH, priority 2010, dated 2014)

target: T1, human ACC2 (Homo sapiens, UniProt O00763); assay: ACC2 assay, spectrophotometric 384 well assay (NADH-linked, coupled lactate dehydrogenase/pyruvate kinase); type: biochemical; settings: hACC2 construct lacking the 128 N-terminal amino acids; 25° C., 340 nm, 15 minutes
T1 construct: made in house; host or cells: insect cells, baculoviral expression system
T1 sequence (O00763 129-2458 limits assumed): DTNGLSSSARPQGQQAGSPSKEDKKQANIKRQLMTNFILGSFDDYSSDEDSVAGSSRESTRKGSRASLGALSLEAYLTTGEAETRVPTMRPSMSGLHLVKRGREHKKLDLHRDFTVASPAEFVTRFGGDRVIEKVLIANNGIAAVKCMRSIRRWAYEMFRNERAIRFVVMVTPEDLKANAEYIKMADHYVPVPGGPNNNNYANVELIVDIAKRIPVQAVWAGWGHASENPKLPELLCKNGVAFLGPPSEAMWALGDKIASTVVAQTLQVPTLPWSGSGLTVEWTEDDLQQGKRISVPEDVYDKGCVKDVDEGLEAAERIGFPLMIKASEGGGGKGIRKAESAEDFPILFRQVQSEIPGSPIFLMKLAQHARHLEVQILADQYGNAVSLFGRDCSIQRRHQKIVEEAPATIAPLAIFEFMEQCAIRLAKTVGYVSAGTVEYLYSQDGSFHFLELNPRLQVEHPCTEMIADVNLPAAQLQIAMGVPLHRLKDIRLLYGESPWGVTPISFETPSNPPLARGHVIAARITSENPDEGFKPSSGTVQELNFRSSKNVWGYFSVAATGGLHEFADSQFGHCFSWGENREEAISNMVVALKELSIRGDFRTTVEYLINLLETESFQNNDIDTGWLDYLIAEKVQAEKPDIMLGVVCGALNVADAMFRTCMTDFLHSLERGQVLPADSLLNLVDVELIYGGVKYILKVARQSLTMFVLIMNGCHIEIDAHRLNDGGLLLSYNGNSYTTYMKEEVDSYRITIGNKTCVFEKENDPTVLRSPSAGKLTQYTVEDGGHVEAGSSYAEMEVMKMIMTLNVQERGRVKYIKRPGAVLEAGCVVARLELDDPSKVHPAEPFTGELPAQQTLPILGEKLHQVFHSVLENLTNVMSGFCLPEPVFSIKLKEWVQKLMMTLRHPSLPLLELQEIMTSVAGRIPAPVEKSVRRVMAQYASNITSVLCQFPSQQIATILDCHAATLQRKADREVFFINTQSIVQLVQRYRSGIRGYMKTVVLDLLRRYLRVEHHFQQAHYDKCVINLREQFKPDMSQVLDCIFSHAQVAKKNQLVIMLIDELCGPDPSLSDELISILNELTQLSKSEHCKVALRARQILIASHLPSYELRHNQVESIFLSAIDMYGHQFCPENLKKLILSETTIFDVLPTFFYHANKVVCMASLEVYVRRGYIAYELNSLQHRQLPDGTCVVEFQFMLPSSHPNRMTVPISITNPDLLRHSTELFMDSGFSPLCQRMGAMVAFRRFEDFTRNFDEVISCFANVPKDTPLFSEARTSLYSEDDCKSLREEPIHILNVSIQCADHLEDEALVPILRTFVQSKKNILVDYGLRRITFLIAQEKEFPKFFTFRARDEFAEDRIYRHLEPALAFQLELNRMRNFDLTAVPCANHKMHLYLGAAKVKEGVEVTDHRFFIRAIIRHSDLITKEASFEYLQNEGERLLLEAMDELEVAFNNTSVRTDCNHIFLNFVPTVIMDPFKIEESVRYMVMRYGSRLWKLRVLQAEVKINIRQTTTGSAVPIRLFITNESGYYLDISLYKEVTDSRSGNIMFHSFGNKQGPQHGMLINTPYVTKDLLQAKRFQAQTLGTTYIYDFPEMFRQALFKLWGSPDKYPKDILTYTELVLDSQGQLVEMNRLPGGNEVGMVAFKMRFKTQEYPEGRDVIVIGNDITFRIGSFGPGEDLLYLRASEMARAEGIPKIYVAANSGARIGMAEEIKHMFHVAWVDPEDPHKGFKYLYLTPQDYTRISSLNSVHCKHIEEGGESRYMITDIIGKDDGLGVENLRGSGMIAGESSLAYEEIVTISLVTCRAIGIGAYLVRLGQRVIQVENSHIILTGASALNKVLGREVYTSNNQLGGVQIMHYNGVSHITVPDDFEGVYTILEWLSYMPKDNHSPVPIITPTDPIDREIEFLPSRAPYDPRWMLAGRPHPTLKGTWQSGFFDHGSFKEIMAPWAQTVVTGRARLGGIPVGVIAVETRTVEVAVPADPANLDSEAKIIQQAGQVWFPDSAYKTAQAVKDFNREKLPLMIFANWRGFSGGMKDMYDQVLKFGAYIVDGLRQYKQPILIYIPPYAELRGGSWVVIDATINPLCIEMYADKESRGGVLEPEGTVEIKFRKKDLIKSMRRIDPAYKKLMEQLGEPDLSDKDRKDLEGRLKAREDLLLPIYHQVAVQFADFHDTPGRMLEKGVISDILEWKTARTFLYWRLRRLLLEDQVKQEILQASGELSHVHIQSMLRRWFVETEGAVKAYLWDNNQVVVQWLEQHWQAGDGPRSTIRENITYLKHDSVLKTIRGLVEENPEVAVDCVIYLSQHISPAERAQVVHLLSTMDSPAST
Description: Spectrophotometric 384 Well Assay
Malonyl CoA formation by acetyl CoA carboxylases is stoichometrically linked to the consumption of ATP. ACC2 activity is measured in a NADH-linked kinetic method measuring ADP generated during the ACC reaction using a coupled lactate dehydrogenase/pyruvate kinase reaction.
For biological testing, a human ACC2 construct which lacks the 128 amino acids at the N-terminus for increased solubility (nt 385-6966 in Genbank entry AJ575592) is cloned. The protein is then expressed in insect cells using a baculoviral expression system. Protein purification is performed by anion exchange.
All compounds are dissolved in dimethyl sulfoxide (DMSO) to a concentration of 10 mM.
Assay reactions are then carried out in 384-well plates, with hACC2 in an appropriate dilution and at final assay concentrations (f.c.) of 100 mM Tris (pH 7.5), 10 mM trisodium citrate, 25 mM KHCO3, 10 mM MgCl2, 0.5 mg/mL BSA, 3.75 mM reduced L-glutathione, 15 U/mL lactate dehydrogenase, 0.5 mM phosphoenolpyruvate, 15 U/mL pyruvate kinase, compounds at different concentrations at final DMSO concentrations of 1%.
The enzymatic reaction is then started by addition of a mixture of NADH, acetyl Coenzyme A (both 200 μM f.c.) and ATP (500 uM f.c.). The decrease of the optical density (slope S) is then determined at 25° C. at a wavelength of 340 nm over 15 minutes in a spectrophotometric reader.
Each assay microtiter plate contains wells with vehicle instead of compound as controls for the non-inhibited enzyme (100% CTL; ‘HIGH’) and wells without acetyl-CoA as controls for non-specific NADH degradation (0% CTL; ‘LOW’). The slope S is used for calculation of % CTL=(S(compound)−S(‘LOW’))/(S(‘HIGH’)—S(‘LOW’))*100. Compounds will give values between 100% CTL (no inhibition) and 0% CTL (complete inhibition).
For IC50 value determination, the sample slope in the presence of the test compound after subtraction of the low controls (S(compound)−S(‘LOW’)) are used.
An IC50 value is derived from the compound slopes at different dosages after subtraction of the low controls (S(compound)−S(‘LOW’)) by non-linear regression curve fitting (equation y=(A+((B−A)/(1+((C/x)^D))))).

Point of comparison: `CCNC(=O)C(C)c1ccc(C#Cc2ccc(OCCn3cccc3)cc2)cc1` (centres unmarked) [Example 5.7], IC50 0.17 µM. Against it:
- CCNC(=O)C(C)c1ccc(C#Cc2ccc(COC)cc2)cc1 (centres unmarked) [Example 7.27] — 64-fold higher, 10.9 µM
- CCOc1ccc(C#Cc2ccc(C(C)C(=O)Nc3cccnc3)cc2)cc1 (centres unmarked) [Example 6.14] — within 1.5-fold, 0.24 µM
- CCNC(=O)C(C)c1ccc(C#Cc2ccc(OCC)cc2)cc1 (centres unmarked) [Example 1.5] — 1.9-fold lower, 0.09 µM
- CCNC(=O)C(C)c1ccc(C#Cc2ccc3c(c2)OCC3)cc1 (centres unmarked) [Example 7.20] — 2.9-fold higher, 0.5 µM
- CCOc1ccc(C#Cc2ccc(C(C)C(=O)Nc3ccncc3)cc2)cc1 (centres unmarked) [Example 6.13] — 2.4-fold higher, 0.4 µM
- CCNC(=O)C(C)c1ccc(C#Cc2ccc(OCc3cncs3)cc2)cc1 (centres unmarked) [Example 5.10] — 22-fold higher, 3.7 µM
- CCNC(=O)C(C)c1ccc(C#Cc2ccc(OCC3CC3(F)F)cc2)cc1 (centres unmarked) [Example 5.20] — 1.9-fold lower, 0.09 µM
- CCNC(=O)C(C)c1ccc(C#Cc2cc(OCC)ncn2)cc1 (centres unmarked) [Example 7.13] — 12-fold higher, 2 µM
- CCOc1ccc(C#Cc2ccc(C(C)C(=O)NC3COC3)cc2)cc1 (centres unmarked) [Example 6.8] — 3.6-fold higher, 0.62 µM
- CCNC(=O)C(C)c1ccc(C#Cc2ccc(C(=O)Cn3cnc(C)c3)cc2)cc1 (centres unmarked) [Example 7.21] — 130-fold higher, 22.5 µM
- CCNC(=O)C(C)c1ccc(C#Cc2cnc(NCc3ccncc3)nc2)cc1 (centres unmarked) [Example 2.16] — 44-fold higher, 7.4 µM
- CCNC(=O)C(C)c1ccc(C#Cc2cnc(OCCF)nc2)cc1 (centres unmarked) [Example 3.1, N-Ethyl-2-{4-[2-(2-fluoro-ethoxy)-pyrimidin-5-ylethynyl]-phenyl}-propionamide] — 49-fold higher, 8.4 µM
- CCOc1ccc(C#Cc2ccc(C(C)C(=O)Nc3ccn[nH]3)cc2)cc1 (centres unmarked) [Example 6.6] — 21-fold higher, 3.6 µM
- CCNC(=O)C(C)c1ccc(C#Cc2ccn(CC(C)C)c(=O)c2)cc1 (centres unmarked) [Example 7.34] — 6.5-fold higher, 1.1 µM
- CCNC(=O)C(C)c1ccc(C#Cc2ccc(OCC(C)F)cc2)cc1 (centres unmarked) [Example 5.19] — within 1.5-fold, 0.25 µM
- CCNC(=O)C(C)c1ccc(C#Cc2cc(OCc3ccccc3)ncn2)cc1 (centres unmarked) [Example 7.31] — 3.8-fold higher, 0.64 µM
- CCNC(=O)C(C)c1ccc(C#Cc2ccc(OCCOCC)cc2)cc1 (centres unmarked) [Example 5.4] — 6.5-fold higher, 1.1 µM
- CCCOc1ccc(C#Cc2ccc(C(C)C(=O)NCC)cc2)c(C#N)c1 (centres unmarked) [Example 7.39] — 7.1-fold higher, 1.2 µM
- CCOc1ccc(C#Cc2ccc(C(C)C(=O)NCc3ncn[nH]3)cc2)cc1 (centres unmarked) [Example 6.19] — 26-fold higher, 4.5 µM
- CCNC(=O)C(C)c1ccc(C#Cc2cnn(Cc3ccccc3)c2)cc1 (centres unmarked) [Example 7.12] — 5.9-fold higher, 1 µM
- CCNC(=O)Cc1ccc(C#Cc2ccc(OCC)cc2)cc1 [Example 1.22] — 21-fold higher, 3.6 µM
- CCOc1ccc(C#Cc2ccc(C(C)C(=O)NC3CC3)cc2)cc1 (centres unmarked) [Example 1.17] — within 1.5-fold, 0.12 µM
- CCNC(=O)C(C)c1ccc(C#Cc2ccc(C3CC3)cn2)cc1 (centres unmarked) [Example 7.33] — 32-fold higher, 5.4 µM
- CCNC(=O)C(C)c1ccc(C#Cc2ccc(OC)c(OC)c2)cc1 (centres unmarked) [Example 7.48] — 150-fold higher, 25.7 µM
- CCNC(=O)C(C)c1ccc(C#Cc2ccc(OCC3CC3)cc2)cc1 (centres unmarked) [Example 7.4] — within 1.5-fold, 0.15 µM
- CCNC(=O)C(C)c1ccc(C#Cc2ccc(OCCC3CC3)cc2)cc1 (centres unmarked) [Example 5.5] — within 1.5-fold, 0.2 µM
- CCNC(=O)C(C)c1ccc(C#Cc2ccc(OC3CCC3)cc2)cc1 (centres unmarked) [Example 7.3] — 1.5-fold lower, 0.11 µM
- CCOc1ccc(C#Cc2ccc(C(C)C(=O)Nc3cc(C)nn3C)cc2)cc1 (centres unmarked) [Example 6.1, N-(2,5-Dimethyl-2H-pyrazol-3-yl)-2-[4-(4-ethoxy-phenylethynyl)-phenyl]-propionamide] — within 1.5-fold, 0.23 µM
- CCNC(=O)C(C)c1ccc(C#Cc2cnc(OC)nc2OC)cc1 (centres unmarked) [Example 7.5] — 26-fold higher, 4.4 µM
- CCOc1ccc(C#Cc2ccc(C(C)C(=O)Nc3ccnn3C)cc2)cc1 (centres unmarked) [Example 6.10] — within 1.5-fold, 0.19 µM
- CCNC(=O)C(C)c1ccc(C#Cc2cnc(OC(C)C)nc2)cc1 (centres unmarked) [Example 3.4] — 2.7-fold higher, 0.46 µM
- CCCOc1cc(C#Cc2ccc(C(C)C(=O)NCC)cc2)ccn1 (centres unmarked) [Example 7.10] — 1.6-fold higher, 0.27 µM
- CCOc1ccc(C#Cc2ccc(C(C)C(=O)Nc3ccnn3CC)cc2)cc1 (centres unmarked) [Example 6.11] — 4.9-fold higher, 0.84 µM
- CCNC(=O)C(C)c1ccc(C#Cc2cnn(-c3ccccc3)c2)cc1 (centres unmarked) [Example 7.32] — 2.6-fold higher, 0.44 µM
- CCNC(=O)C(C)c1ccc(C#Cc2ccc(OC(CC)COC)cc2)cc1 (centres unmarked) [Example 5.16] — 8.2-fold higher, 1.4 µM
- CCCOc1ccc(C#Cc2ccc(C(C)(C)C(=O)NC3CC3)cc2)cc1 [Example 1.14] — 3.5-fold higher, 0.6 µM
- CCNC(=O)C(C)c1ccc(C#Cc2ccc(OCc3ccco3)cc2)cc1 (centres unmarked) [Example 5.1, N-Ethyl-2-{4-[4-(furan-2-ylmethoxy)-phenylethynyl]-phenyl}-propionamide] — 8.8-fold higher, 1.5 µM
- CCNC(=O)C(C)c1ccc(C#Cc2ccnc(OCC)c2)cc1 (centres unmarked) [Example 7.9] — within 1.5-fold, 0.25 µM
- CCOc1ccc(C#Cc2ccc(C(C)C(=O)Nc3cncnc3)cc2)cc1 (centres unmarked) [Example 6.5] — 2.8-fold lower, 0.06 µM
- CCNC(=O)C(C)c1ccc(C#Cc2ccc(OC3CC3)cc2)cc1 (centres unmarked) [Example 7.49] — 2.8-fold lower, 0.06 µM
- CCCCOc1ccc(C#Cc2ccc(C(C)C(=O)NCC)cc2)nn1 (centres unmarked) [Example 7.37] — 19-fold higher, 3.2 µM
- CCNC(=O)C(C)c1ccc(C#Cc2ccc(OC(C)C)nn2)cc1 (centres unmarked) [Example 7.36] — 22-fold higher, 3.8 µM
- CCOc1ccc(C#Cc2ccc(C(C)C(=O)NCCOC)cc2)cc1 (centres unmarked) [Example 1.12] — 57-fold higher, 9.7 µM
- CCNC(=O)C(C)c1ccc(C#Cc2cnc(NC3CCC3)nc2)cc1 (centres unmarked) [Example 2.12] — 4.1-fold higher, 0.69 µM
- CCCCOc1cc(C#Cc2ccc(C(C)C(=O)NCC)cc2)ccn1 (centres unmarked) [Example 7.43] — the same, 0.17 µM
- CCNC(=O)C(C)c1ccc(C#Cc2cncc(OC)c2)cc1 (centres unmarked) [Example 7.14] — 29-fold higher, 5 µM
- CCCOc1ccc(C#Cc2ccc(C(C)C(=O)NCC)cc2)cc1 (centres unmarked) [Example 7.25] — 2.4-fold lower, 0.07 µM
- CCNC(=O)C(C)c1ccc(C#Cc2ccc3cccnc3c2)cc1 (centres unmarked) [Example 7.8] — 15-fold higher, 2.5 µM
- CCOc1ccc(C#Cc2ccc(CC(=O)N(C)C)cc2)cc1 [Example 1.21] — 180-fold higher, 30 µM
- CCNC(=O)C(C)c1ccc(C#Cc2cnc(N3CCC3)nc2)cc1 (centres unmarked) [Example 2.7] — 22-fold higher, 3.7 µM
- CCCc1ccc(C#Cc2ccc(C(C)C(=O)NCC)cc2)cc1 (centres unmarked) [Example 7.22] — 1.9-fold higher, 0.33 µM
- CCOc1ccc(C#Cc2ccc(C(C)C(=O)NC(C)C)cc2)cc1 (centres unmarked) [Example 1.20] — 78-fold higher, 13.2 µM
- CCNC(=O)C(C)c1ccc(C#Cc2cnc(Oc3ccccc3)nc2)cc1 (centres unmarked) [Example 3.3] — 5.4-fold higher, 0.92 µM
- CCNC(=O)C(C)c1ccc(C#Cc2ccc(OC(F)F)cc2)cc1 (centres unmarked) [Example 7.6] — 25-fold higher, 4.3 µM
- CCNC(=O)C(C)c1ccc(C#Cc2cnc(N3CCCCC3)nc2)cc1 (centres unmarked) [Example 2.15] — 8.8-fold higher, 1.5 µM
- CCNC(=O)C(C)c1ccc(C#Cc2ccc(N3CCCCC3=O)cc2)cc1 (centres unmarked) [Example 7.15] — 24-fold higher, 4 µM
- CCNC(=O)C(C)c1ccc(C#Cc2cnc(N3CC4CCCC4C3)nc2)cc1 (centres unmarked) [Example 2.11] — 1.6-fold higher, 0.27 µM
- CCNC(=O)C(C)c1ccc(C#Cc2ccc(OCC3CCOC3)cc2)cc1 (centres unmarked) [Example 5.6] — within 1.5-fold, 0.23 µM
- CCOc1ccc(C#Cc2ccc(C(C)C(N)=O)cc2)cc1 (centres unmarked) [Example 1.9] — within 1.5-fold, 0.22 µM
- CCNC(=O)C(C)c1ccc(C#Cc2ccc(OCc3cnco3)cc2)cc1 (centres unmarked) [Example 5.21] — 3.2-fold higher, 0.54 µM
- CCOc1ccc(C#Cc2ccc(C(C)C(=O)Nc3ncccn3)cc2)cc1 (centres unmarked) [Example 6.15] — 1.7-fold higher, 0.29 µM
- CCNC(=O)C(C)c1ccc(C#Cc2ccc(OC)cc2)cc1 (centres unmarked) [Example 4.1, N-Ethyl-2-[4-(4-methoxy-phenylethynyl)-phenyl]-propionamide] — 1.5-fold higher, 0.26 µM
- CCNC(=O)C(C)c1ccc(C#Cc2ccc(OCC3(C)COC3)cc2)cc1 (centres unmarked) [Example 5.15] — 16-fold higher, 2.7 µM
- CCCOc1ccc(C#Cc2ccc(C(C)(C)C(=O)NCC)cc2)cc1 [Example 1.8] — 14-fold higher, 2.4 µM
- CCOc1ccc(C#Cc2ccc(C(C)C(=O)Nc3cc(C)on3)cc2)cc1 (centres unmarked) [Example 6.16] — 1.7-fold lower, 0.1 µM
- CCOc1ccc(C#Cc2ccc(C(C)C(=O)NCC3CCOC3)cc2)cc1 (centres unmarked) [Example 6.25] — 75-fold higher, 12.8 µM
- CCCOc1ccc(C#Cc2ccc(C(C)C(=O)NCC)cc2)c(Cl)c1 (centres unmarked) [Example 7.40] — within 1.5-fold, 0.14 µM
- CCNC(=O)C(C)c1ccc(C#Cc2cnc(NC(C)CC)nc2)cc1 (centres unmarked) [Example 2.6] — 2.4-fold higher, 0.41 µM
- CCOc1ccc(C#Cc2ccc(C(C)C(=O)NCC(=O)OC)cc2)cc1 (centres unmarked) [Example 1.18] — 7.6-fold higher, 1.3 µM
- CCOc1ccc(C#Cc2ccc(C(C)C(=O)N(C)C)cc2)cc1 (centres unmarked) [Example 1.4] — 95-fold higher, 16.1 µM
- CCOc1ccc(C#Cc2ccc(C(C)C(=O)Nc3ncco3)cc2)cc1 (centres unmarked) [Example 6.7] — 19-fold higher, 3.3 µM
- CCNC(=O)C(C)c1ccc(C#Cc2ccc(OC(C)C)nc2)cc1 (centres unmarked) [Example 7.29] — within 1.5-fold, 0.25 µM
- CCNC(=O)C(C)c1ccc(C#Cc2cnc(NCCF)nc2)cc1 (centres unmarked) [Example 2.9] — 15-fold higher, 2.5 µM
